Reference: PubChem BioAssay AID488867 (Broad Institute, 2010)
The source made the active and inactive calls.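 Rule for the calls: active = a rising curve with AC50 no higher than ten times the top valid dose of that compound; inconclusive = flat curve between 30 and 70 percent, or failed fit; inactive = the rest.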

Experiment: protection from cytokine-driven beta-cell apoptosis, dose response, JC-1 fluorescence, INS-1E, dry powder, set 2 (AID 488867)
Conditions: INS-1E cytokine-induced apoptosis, JC-1 mitochondrial potential, 48 h; at 12 µM (top of the series)
With `C[C@@H]1CN([C@@H](C)CO)C(=O)c2cccc(NC(=O)Nc3cccc4ccccc34)c2O[C@H]1CN(C)S(=O)(=O)c1ccc2c(c1)OCCO2` the protection from cytokine-induced depolarization was 29.7% (inactive).

Same assay, conditions: INS-1E cytokine-induced apoptosis, JC-1 mitochondrial potential, 48 h; at 23.5 µM (top of the series)
For `C[C@@H]1CN([C@@H](C)CO)C(=O)c2cccc(NC(=O)Nc3cccc4ccccc34)c2O[C@H]1CN(C)C(=O)Nc1ccc(C(F)(F)F)cc1`, the protection from cytokine-induced depolarization was 7.29% (inactive). In the case of `COc1ccc(S(=O)(=O)N(C)C[C@@H]2Oc3c(NS(=O)(=O)c4ccc(C)cc4)cccc3C(=O)N([C@@H](C)CO)C[C@H]2C)cc1`, the protection from cytokine-induced depolarization is reported as -2.55% (inactive). With `Cc1ccc(S(=O)(=O)N(C)C[C@@H]2Oc3c(NC(=O)Nc4cccc5ccccc45)cccc3C(=O)N([C@H](C)CO)C[C@H]2C)cc1` the protection from cytokine-induced depolarization was 7.94% (inactive). For `COc1ccc(S(=O)(=O)N(C)C[C@@H]2Oc3c(cccc3N(C)C)C(=O)N([C@@H](C)CO)C[C@H]2C)cc1`, the protection from cytokine-induced depolarization was -4.35% (inactive). In the case of `COc1ccc(S(=O)(=O)N(C)C[C@@H]2Oc3c(NC(=O)C4CCOCC4)cccc3C(=O)N([C@@H](C)CO)C[C@H]2C)cc1`, the protection from cytokine-induced depolarization is reported as 3.35% (inactive). In the case of `COc1ccc(S(=O)(=O)N(C)C[C@@H]2Oc3c(NC(=O)C4CC4)cccc3C(=O)N([C@@H](C)CO)C[C@H]2C)cc1`, the protection from cytokine-induced depolarization is reported as -7.4% (inactive).

Same assay, conditions: INS-1E cytokine-induced apoptosis, JC-1 mitochondrial potential, 48 h; at 26 µM (top of the series)
In the case of `C[C@@H]1CN([C@@H](C)CO)C(=O)c2cccc(NC(=O)Nc3cccc4ccccc34)c2O[C@H]1CN(C)CC1CC1`, the protection from cytokine-induced depolarization is reported as 10.5% (inactive). With `COc1ccc(S(=O)(=O)N(C)C[C@@H]2Oc3c(NC(=O)c4cccc5ccccc45)cccc3C(=O)N([C@@H](C)CO)C[C@H]2C)cc1` the protection from cytokine-induced depolarization was 4.73% (inactive). With `C[C@@H]1CN([C@@H](C)CO)C(=O)c2cccc(NC(=O)Nc3cccc4ccccc34)c2O[C@H]1CN(C)S(=O)(=O)c1ccc(F)cc1` the protection from cytokine-induced depolarization was 4.49% (inactive). With `C[C@@H]1CN([C@@H](C)CO)C(=O)c2cccc(NC(=O)Nc3cccc4ccccc34)c2O[C@H]1CN(C)S(=O)(=O)c1ccc2c(c1)oc(=O)n2C` the protection from cytokine-induced depolarization was -5.34% (inactive). In the case of `COc1ccc(S(=O)(=O)N(C)C[C@@H]2Oc3c(NC(=O)Nc4cccc5ccccc45)cccc3C(=O)N([C@@H](C)CO)C[C@H]2C)cc1C`, the protection from cytokine-induced depolarization is reported as -8.34% (inactive). For `COc1ccc(S(=O)(=O)N(C)C[C@@H]2Oc3c(NC(=O)c4cc(C)nn4C)cccc3C(=O)N([C@@H](C)CO)C[C@H]2C)cc1`, the protection from cytokine-induced depolarization was 1.8% (inactive). For `COc1ccc(S(=O)(=O)N(C)C[C@@H]2Oc3c(NC(=O)Nc4ccc(C(F)(F)F)cc4)cccc3C(=O)N([C@@H](C)CO)C[C@H]2C)cc1`, the protection from cytokine-induced depolarization was -7.36% (inactive). In the case of `COc1ccc(S(=O)(=O)N(C)C[C@@H]2Oc3c(NC(=O)Nc4cccc5ccccc45)cccc3C(=O)N([C@@H](C)CO)C[C@@H]2C)cc1`, the protection from cytokine-induced depolarization is reported as -0.543% (inactive). With `C[C@H]1CN([C@@H](C)CO)C(=O)c2cccc(NC(=O)NC3CCCCC3)c2O[C@@H]1CN(C)S(C)(=O)=O` the protection from cytokine-induced depolarization was -1.29% (inactive). In the case of `C[C@@H]1CN([C@@H](C)CO)C(=O)c2cccc(NC(=O)Nc3cccc4ccccc34)c2O[C@H]1CN(C)S(=O)(=O)c1ccccc1`, the protection from cytokine-induced depolarization is reported as 8.02% (inactive). With `COc1ccc(S(=O)(=O)N(C)C[C@@H]2Oc3c(NC(=O)Nc4cccc5ccccc45)cccc3C(=O)N([C@H](C)CO)C[C@@H]2C)cc1` the protection from cytokine-induced depolarization was -2.94% (inactive). For `COc1ccc(S(=O)(=O)N(C)C[C@@H]2Oc3c(NC(=O)Nc4cccc5ccccc45)cccc3C(=O)N([C@@H](C)CO)C[C@H]2C)cc1F`, the protection from cytokine-induced depolarization was -3.4% (inactive). With `COc1ccc(S(=O)(=O)N(C)C[C@@H]2Oc3c(NC(=O)Nc4c(C)noc4C)cccc3C(=O)N([C@@H](C)CO)C[C@H]2C)cc1` the protection from cytokine-induced depolarization was 2.03% (inactive). In the case of `COc1ccc(S(=O)(=O)N(C)C[C@@H]2Oc3c(NC(=O)Nc4cccc5ccccc45)cccc3C(=O)N([C@@H](C)CO)C[C@H]2C)c(OC)c1`, the protection from cytokine-induced depolarization is reported as 11.3% (inactive). In the case of `COc1ccc(S(=O)(=O)N(C)C[C@@H]2Oc3c(NC(=O)Nc4cccc5ccccc45)cccc3C(=O)N(C(C)C)C[C@H]2C)cc1`, the protection from cytokine-induced depolarization is reported as 36.6% (inactive). With `C[C@@H]1CN([C@H](C)CO)C(=O)c2cccc(NC(=O)Nc3ccccc3)c2O[C@H]1CN(C)S(=O)(=O)c1ccc(F)cc1` the protection from cytokine-induced depolarization was 4.78% (inactive). For `Cc1noc(C)c1NC(=O)N(C)C[C@@H]1Oc2c(NC(=O)Nc3cccc4ccccc34)cccc2C(=O)N([C@@H](C)CO)C[C@H]1C`, the protection from cytokine-induced depolarization was 12.1% (inactive). In the case of `C[C@@H]1CN([C@@H](C)CO)C(=O)c2cccc(NC(=O)Nc3cccc4ccccc34)c2O[C@H]1CN(C)C(=O)Nc1ccc2c(c1)OCO2`, the protection from cytokine-induced depolarization is reported as -3.61% (inactive). For `C[C@@H]1CN([C@@H](C)CO)C(=O)c2cccc(NC(=O)Nc3ccc(F)cc3)c2O[C@H]1CN(C)S(=O)(=O)c1ccc(F)cc1`, the protection from cytokine-induced depolarization was 11.7% (inactive). In the case of `COc1ccc(S(=O)(=O)N(C)C[C@@H]2Oc3c(NC(=O)Nc4cccc5ccccc45)cccc3C(=O)N([C@@H](C)CO)C[C@H]2C)cc1Cl`, the protection from cytokine-induced depolarization is reported as -12% (inactive). For `COc1ccc(S(=O)(=O)N(C)C[C@@H]2Oc3ccc(NC(=O)Nc4cccc5ccccc45)cc3C(=O)N([C@@H](C)CO)C[C@H]2C)cc1`, the protection from cytokine-induced depolarization was -12% (inactive). For `C[C@@H]1CN([C@@H](C)CO)C(=O)c2cccc(NC(=O)Nc3cccc(Cl)c3Cl)c2O[C@H]1CN(C)S(=O)(=O)c1ccc2c(c1)OCCO2`, the protection from cytokine-induced depolarization was 8.05% (inactive). In the case of `Cc1ccc(S(=O)(=O)N(C)C[C@@H]2Oc3c(NC(=O)Nc4ccc(F)cc4)cccc3C(=O)N([C@@H](C)CO)C[C@H]2C)cc1`, the protection from cytokine-induced depolarization is reported as 10.4% (inactive). In the case of `COc1ccc(S(=O)(=O)N(C)C[C@@H]2Oc3c(NS(=O)(=O)c4ccc(Cl)cc4)cccc3C(=O)N([C@@H](C)CO)C[C@H]2C)cc1`, the protection from cytokine-induced depolarization is reported as -6.3% (inactive). In the case of `C[C@@H]1CN([C@@H](C)CO)C(=O)c2cccc(NC(=O)Nc3ccccc3)c2O[C@H]1CN(C)S(=O)(=O)c1ccc(Cl)cc1`, the protection from cytokine-induced depolarization is reported as 17.7% (inactive). With `C[C@@H]1CN([C@@H](C)CO)C(=O)c2cccc(NC(=O)Nc3cccc4ccccc34)c2O[C@H]1CN(C)S(=O)(=O)c1cn(C)cn1` the protection from cytokine-induced depolarization was 6.5% (inactive). With `COc1ccc(NC(=O)Nc2cccc3c2O[C@@H](CN(C)S(=O)(=O)c2ccc(OC)cc2)[C@H](C)CN([C@@H](C)CO)C3=O)cc1` the protection from cytokine-induced depolarization was 0.556% (inactive). For `COc1ccc(S(=O)(=O)N(C)C[C@@H]2Oc3c(NC(=O)c4nc5ccccc5s4)cccc3C(=O)N([C@@H](C)CO)C[C@H]2C)cc1`, the protection from cytokine-induced depolarization was -8.58% (inactive). In the case of `COc1ccc(S(=O)(=O)Nc2cccc3c2O[C@@H](CN(C)S(=O)(=O)c2ccc(OC)cc2)[C@H](C)CN([C@@H](C)CO)C3=O)cc1`, the protection from cytokine-induced depolarization is reported as 3.9% (inactive). For `COc1ccc(NC(=O)N(C)C[C@@H]2Oc3c(NC(=O)Nc4cccc5ccccc45)cccc3C(=O)N([C@@H](C)CO)C[C@H]2C)cc1`, the protection from cytokine-induced depolarization was 0.86% (inactive). For `C[C@@H]1CN([C@@H](C)CO)C(=O)c2cccc(NC(=O)Nc3ccc(F)cc3)c2O[C@H]1CN(C)S(=O)(=O)c1ccc(Cl)cc1`, the protection from cytokine-induced depolarization was 8.02% (inactive). For `COc1ccc(S(=O)(=O)N(C)C[C@@H]2Oc3c(NC(=O)NC4CCCCC4)cccc3C(=O)N([C@@H](C)CO)C[C@H]2C)cc1`, the protection from cytokine-induced depolarization was 7.46% (inactive). With `COc1ccc(S(=O)(=O)N(C)C[C@@H]2Oc3c(NS(=O)(=O)c4cn(C)cn4)cccc3C(=O)N([C@@H](C)CO)C[C@H]2C)cc1` the protection from cytokine-induced depolarization was -9.04% (inactive). With `C[C@@H]1CN([C@@H](C)CO)C(=O)c2cccc(NC(=O)Nc3cccc4ccccc34)c2O[C@H]1CN(C)S(=O)(=O)c1ccc2c(c1)OCCO2` the protection from cytokine-induced depolarization was 26.8% (inactive). With `C[C@@H]1CN([C@H](C)CO)C(=O)c2cccc(NC(=O)Nc3cccc4ccccc34)c2O[C@H]1CN(C)S(=O)(=O)c1ccc(Cl)cc1` the protection from cytokine-induced depolarization was 4.01% (inactive). For `COc1ccc(S(=O)(=O)N(C)C[C@@H]2Oc3c(NC(=O)c4ccc(-c5nccs5)cc4)cccc3C(=O)N([C@@H](C)CO)C[C@H]2C)cc1`, the protection from cytokine-induced depolarization was -3.02% (inactive). With `COc1ccc(S(=O)(=O)N(C)C[C@@H]2Oc3c(NS(=O)(=O)c4ccccc4)cccc3C(=O)N([C@@H](C)CO)C[C@H]2C)cc1` the protection from cytokine-induced depolarization was -2.15% (inactive). For `COc1ccc(S(=O)(=O)N(C)C[C@@H]2Oc3c(NC(=O)c4ccncc4)cccc3C(=O)N([C@@H](C)CO)C[C@H]2C)cc1`, the protection from cytokine-induced depolarization was -1.06% (inactive). For `C[C@@H]1CN([C@@H](C)CO)C(=O)c2cccc(NC(=O)Nc3cccc4ccccc34)c2O[C@H]1CN(C)S(=O)(=O)c1ccc2c(c1)OCO2`, the protection from cytokine-induced depolarization was 32.4% (inactive). In the case of `COc1ccccc1S(=O)(=O)N(C)C[C@@H]1Oc2c(NC(=O)Nc3cccc4ccccc34)cccc2C(=O)N([C@@H](C)CO)C[C@H]1C`, the protection from cytokine-induced depolarization is reported as -3.43% (inactive). In the case of `C[C@@H]1CN([C@@H](C)CO)C(=O)c2cccc(NC(=O)Nc3cccc4ccccc34)c2O[C@H]1CN(C)S(=O)(=O)c1cccc(F)c1`, the protection from cytokine-induced depolarization is reported as -9.88% (inactive). In the case of `C[C@@H]1CN([C@@H](C)CO)C(=O)c2cccc(NC(=O)Nc3cccc4ccccc34)c2O[C@H]1CN(C)S(=O)(=O)c1ccc(OC(F)(F)F)cc1`, the protection from cytokine-induced depolarization is reported as -2.77% (inactive). With `COc1ccc(S(=O)(=O)N(C)C[C@@H]2Oc3c(NC(=O)C4CCCCC4)cccc3C(=O)N([C@@H](C)CO)C[C@H]2C)cc1` the protection from cytokine-induced depolarization was 2.77% (inactive). With `COc1ccc(S(=O)(=O)N(C)C[C@@H]2Oc3c(NS(=O)(=O)c4ccc(F)cc4)cccc3C(=O)N([C@@H](C)CO)C[C@H]2C)cc1` the protection from cytokine-induced depolarization was -3.26% (inactive). With `COc1ccc(S(=O)(=O)N(C)C[C@@H]2Oc3c(NC(=O)Nc4ccc(F)cc4)cccc3C(=O)N([C@H](C)CO)C[C@H]2C)cc1` the protection from cytokine-induced depolarization was 10.8% (inactive). With `COc1ccc(S(=O)(=O)N(C)C[C@@H]2Oc3c(NC(=O)Nc4ccc5c(c4)OCO5)cccc3C(=O)N([C@@H](C)CO)C[C@H]2C)cc1` the protection from cytokine-induced depolarization was 4.22% (inactive).
